Data published in article PMC7037052, “Predicting the Blood-Brain Barrier Permeability of New Drug-Like Compounds via HPLC with Various Stationary Phases” (Molecules, 2020).

Columns and labels:
[1] = RP-HPLC retention on Cosmosil Cholester column, buffer pH 7.4-acetonitrile; format: physicochemical; details: for log kw, Cholester: extrapolated to buffer pH 7.4 as mobile phase, 25 °C; for s Cholester: slope of Soczewiński-Wachtmeister equation, acetonitrile φ 0.4–0.6
How it was run: (§1)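 Mobile phase: pH 7.4 Na2HPO4/citric acid buffer (0.01 mol L^−1) with acetonitrile at several volume fractions per column; 25 °C, UV detection at 210 and 254 nm, citric acid as dead-time marker. log kw extrapolated to pure buffer by Soczewiński-Wachtmeister equation; mean of ≥3 independent measurements.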

[2] = tested on: Herpes simplex virus type 1; parameters: method as in PMID 30807815; details: cited from earlier work
[3] = RP-HPLC retention on IAM.PC.DD2 (immobilized artificial membrane) column, buffer pH 7.4-acetonitrile; format: physicochemical; details: for log kw, IAM: extrapolated to buffer pH 7.4 as mobile phase, 25 °C; for s IAM: slope of Soczewiński-Wachtmeister equation, acetonitrile φ 0.2–0.5
How it was run: as §1

normal cells = tested on: normal cells; parameters: method as in doi:10.1016/j.arabjc.2016.12.024, PMID 24126095; details: cited from earlier work
normal Vero cells = tested on: normal Vero cells; parameters: method as in PMID 30807815; details: cited from earlier work
erythrocytes = tested on: erythrocytes; parameters: method as in PMID 30807815; details: cited from earlier work
human cancer cells = tested on: human cancer cells; parameters: method as in doi:10.1016/j.arabjc.2016.12.024, PMID 24126095; details: cited from earlier work
[4] = RP-HPLC retention on Purosphere RP-18e (ODS) column, buffer pH 7.4-acetonitrile; format: physicochemical; details: for log kw, ODS: extrapolated to buffer pH 7.4 as mobile phase, 25 °C; for s ODS: slope of Soczewiński-Wachtmeister equation, acetonitrile φ 0.3–0.6
How it was run: as §1

[5] = parameters: method as in PMID 24157086, PMID 25528370; details: cited from earlier work
[6] = parameters: method as in PMID 16331406; details: rats; BB = Cbrain/Cplasma; training set; cited from earlier work

## CCc1nnc2n(c1=O)CCN2c1ccc(Cl)c(Cl)c1 [Compound 6]
[1]
  log kw, Cholester: 2.05
  s Cholester: 3.61
[2]
  potency against Herpes simplex virus type 1: remarkable concentration-dependent potency
[3]
  log kw, IAM: 1.85
  s IAM: 4.11
Normal cells
  toxic effects for normal cells: less toxic effects
Normal Vero cells
  toxicity to normal Vero cells: low toxicity
erythrocytes
  oxidatively-induced haemolysis of erythrocytes: inhibiting the oxidatively-induced haemolysis
Human cancer cells
  antiproliferative activities in human cancer cells: significant antiproliferative activities
[4]
  log kw, ODS: 2.53
  s ODS: 4.49

## COC(=O)Cc1nnc2n(c1=O)CCN2c1ccc(C)cc1 [Compound 8]
[1]
  log kw, Cholester: 1.29
  s Cholester: 2.75
[3]
  log kw, IAM: 1.33
  s IAM: 3.33
[5]
  antinociceptive effect in mice: strongest antinociceptive effect
[4]
  log kw, ODS: 1.90
  s ODS: 3.82

## O=c1c(Cc2ccccc2Cl)nnc2n1CCN2c1ccccc1 [Compound 42]
[1]
  log kw, Cholester: 2.83
  s Cholester: 4.71
[3]
  log kw, IAM: 2.34
  s IAM: 4.78
[5]
  antinociceptive effect in mice: strongest antinociceptive effect
[4]
  log kw, ODS: 3.28
  s ODS: 5.10

## CCOc1ccc(N2CCn3c2nnc(Cc2ccccc2)c3=O)cc1 [Compound 51]
[1]
  log kw, Cholester: 2.68
  s Cholester: 4.55
[3]
  log kw, IAM: 2.11
  s IAM: 4.51
[5]
  antinociceptive effect in mice: strongest antinociceptive effect
[4]
  log kw, ODS: 3.28
  s ODS: 5.61

## CN1CCC[C@H]1c1cccnc1 [Compound 54-11-5]
[6]
  log BBexp.: 0.56

## O=c1c(CCc2ccccc2)nnc2n1CCN2c1ccccc1Cl [Compound 63]
[1]
  log kw, Cholester: 1.94
  s Cholester: 3.66
[3]
  log kw, IAM: 1.81
  s IAM: 4.08
Normal cells
  toxic effects for normal cells: less toxic effects
Human cancer cells
  antiproliferative activities in human cancer cells: significant antiproliferative activities
[4]
  log kw, ODS: 2.46
  s ODS: 4.44

## O=c1c(CCc2ccccc2)nnc2n1CCN2c1ccc(Cl)cc1 [Compound 64]
[1]
  log kw, Cholester: 3.22
  s Cholester: 5.12
[3]
  log kw, IAM: 2.68
  s IAM: 5.44
Normal cells
  toxic effects for normal cells: less toxic effects
Human cancer cells
  antiproliferative activities in human cancer cells: significant antiproliferative activities
[4]
  log kw, ODS: 3.56
  s ODS: 5.81

## CN1C(=O)CC[C@H]1c1cccnc1 [Compound 486-56-6]
[6]
  log BBexp.: 0.04

## c1cncc([C@@H]2CCCN2)c1 [Compound 494-97-3]
[6]
  log BBexp.: 0.32

## NC(N)=Nc1nc(-c2ccccc2)cs1 [Compound 2507-81-5]
[6]
  log BBexp.: −0.18

## Clc1cccc(Cl)c1NC1=NCCN1 [Compound 4205-90-7]
[6]
  log BBexp.: 0.19

## Brc1cccc(Br)c1NC1=NCCN1 [Compound 4205-93-0]
[6]
  log BBexp.: 0.33

## Clc1ccc(NC2=NCCN2)c(Cl)c1 [Compound 23830-88-8]
[6]
  log BBexp.: 0.16

## Brc1cc(Br)c(NC2=NCCN2)c(Br)c1 [Compound 38941-33-2]
[6]
  log BBexp.: 0.58

## Cc1ncc2n1-c1ccc(Cl)cc1C(c1ccccc1F)=NC2 [Compound 59467-70-8]
[6]
  log BBexp.: 0.32

## COc1ccc2nc([S+]([O-])Cc3ncc(C)c(OC)c3C)[nH]c2c1 (stereo not drawn) [Compound 73590-58-6]
[6]
  log BBexp.: −0.82

## CC(C)(C)OC(=O)c1ncn2c1[C@@H]1CCCN1C(=O)c1c(Br)cccc1-2 [Compound 84379-13-5]
[6]
  log BBexp.: −0.09

## CN1Cc2c(C(=O)OC(C)(C)C)ncn2-c2ccsc2C1=O [Compound 99632-94-7]
[6]
  log BBexp.: −0.25
